# Results taken from ChEMBL document CHEMBL5325422, “Design and synthesis of fascaplysin derivatives as inhibitors of FtsZ with potent antibacterial activity and mechanistic study” (Eur J Med Chem, 2023).
# Active and inactive are the calls of the source. The calls are words filed in the database; no cut-off is given here.
# Experiments:
# Staphylococcus aureus [1] = assay: Antibacterial activity against methicillin-resistant Staphylococcus aureus ATCC43300 assessed as bacterial growth inhibition incubated for 18 to 24 hrs by microbroth dilution method; type: functional; conditions: time 18-24 hrs
# Bacillus subtilis [2] = assay: Antibacterial activity against Bacillus subtilis BNCC336690 assessed as bacterial growth inhibition incubated for 18 to 24 hrs by microbroth dilution method; type: functional; conditions: time 18-24 hrs
# Streptococcus pneumoniae = assay: Antibacterial activity against Streptococcus pneumoniae ATCC49619 assessed as bacterial growth inhibition incubated for 18 to 24 hrs by microbroth dilution method; type: functional; conditions: time 18-24 hrs
# Escherichia coli = assay: Antibacterial activity against penicillin-susceptible Escherichia coli ATCC25922 assessed as bacterial growth inhibition incubated for 18 to 24 hrs by microbroth dilution method; type: functional; conditions: time 18-24 hrs
# Staphylococcus aureus [3] = assay: Antibacterial activity against methicillin-resistant Staphylococcus aureus ATCC43300 assessed as filamentation on cell surface at 4 times MIC incubated for 2 hrs by SEM analysis; type: functional, organism-based
# Staphylococcus aureus [4] = assay: Antibacterial activity against methicillin-resistant Staphylococcus aureus ATCC43300 assessed as log10 CFU reduction at MIC measured for 1 hr by time-killing assay; type: functional
# Staphylococcus aureus [5] = assay: Antibacterial activity against methicillin-resistant Staphylococcus aureus ATCC43300 assessed as log10 CFU reduction at 2 to 4 times MIC measured for 0.5 hrs by time-killing assay; type: functional
# Staphylococcus aureus [6] = assay: Antibacterial activity against drug-resistant Staphylococcus aureus ATCC43300 assessed as inhibition of resistance development at 0.5 times MIC after 25 passages incubated for 18 to 24 hrs by microbroth dilution method; type: functional, organism-based; conditions: time 18-24 hrs
# Staphylococcus aureus [7] = assay: Antibacterial activity against methicillin-resistant Staphylococcus aureus ATCC43300 assessed as wrinkling cell surface at 4 times MIC incubated for 2 hrs by SEM analysis; type: functional, organism-based
# Bacillus subtilis [8] = assay: Antibacterial activity against Bacillus subtilis BNCC336690 assessed as increase in cell length at 0.5 times MIC incubated for 4 hrs by microscopic analysis; type: functional, organism-based
# [9] = molecular target: T1, Cell division protein FtsZ (Escherichia coli K-12) (UniProt P0A9A6); assay: Inhibition of recombinant Escherichia coli FtsZ expressed in Escherichia coli BL21 assessed as induction of FtsZ polymerization incubated for 10 mins by light scattering assay; conditions: dose 1-4 µg/ml
# T1 sequence (whole entry): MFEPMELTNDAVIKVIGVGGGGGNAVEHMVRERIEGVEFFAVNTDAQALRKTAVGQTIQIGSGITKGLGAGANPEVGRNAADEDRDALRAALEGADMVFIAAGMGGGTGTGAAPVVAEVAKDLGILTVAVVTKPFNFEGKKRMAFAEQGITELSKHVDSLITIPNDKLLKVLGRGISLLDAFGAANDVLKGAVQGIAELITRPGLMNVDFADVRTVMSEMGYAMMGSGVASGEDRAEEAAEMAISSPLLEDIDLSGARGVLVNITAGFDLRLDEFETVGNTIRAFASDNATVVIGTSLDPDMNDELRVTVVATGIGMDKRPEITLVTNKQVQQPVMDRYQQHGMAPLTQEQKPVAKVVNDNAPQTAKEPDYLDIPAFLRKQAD
# [10] = molecular target: T1, Cell division protein FtsZ (Escherichia coli K-12); assay: Inhibition of recombinant Escherichia coli FtsZ expressed in Escherichia coli BL21 assessed as bundling of FtsZ filaments at 4 ug/ml incubated for 10 mins by TEM analysis; conditions: dose 4.0 µg/ml
# [11] = molecular target: T1, Cell division protein FtsZ (Escherichia coli K-12); assay: Inhibition of recombinant Escherichia coli FtsZ expressed in Escherichia coli BL21 assessed as reduction in GTPase activity incubated for 30 mins by malachite green phosphate staining based assay; conditions: dose 0.02-0.64 µg/ml
# [12] = Hemolytic activity in human erythrocytes assessed as release of hemoglobin level at 12.5 ug/ml incubated for 1 hr by absorbance based assay relative to control; type: toxicity, cell-based, Erythrocyte; conditions: at 12.5 µg/mL, read-out: Activity
# [13] = Cytotoxicity against mouse RAW264.7 cells assessed as cell survival at 12.5 ug/ml incubated for 24 hrs by CCK8 assay relative to control; type: toxicity, cell-based; conditions: at 12.5 µg/mL, read-out: Activity
# [14] = Cytotoxicity against mouse RAW264.7 cells assessed as cell survival at 25 ug/ml incubated for 24 hrs by CCK8 assay relative to control; type: toxicity, cell-based; conditions: at 25 µg/mL, read-out: Activity
# [15] = Cytotoxicity against mouse RAW264.7 cells assessed as cell survival at 50 ug/ml incubated for 24 hrs by CCK8 assay relative to control; type: toxicity, cell-based; conditions: at 50 µg/mL, read-out: Activity
# RAW264.7 = assay: Cytotoxicity against mouse RAW264.7 cells >12.5 ug/ml incubated for 24 hrs by CCK8 assay; type: toxicity, cell-based; conditions: raw264.7, 24 h, dose > 12.5 µg/ml
# Staphylococcus aureus [16] = assay: Antibacterial activity against methicillin-resistant Staphylococcus aureus ATCC43300 assessed as log10 CFU reduction at 1 to 4 times MIC measured after 4 hrs by time-killing assay; type: functional
# [17] = molecular target: T1, Cell division protein FtsZ (Escherichia coli K-12); assay: Inhibition of recombinant Escherichia coli FtsZ expressed in Escherichia coli BL21 assessed as induction of FtsZ polymerization at 4 ug/ml incubated for 10 mins by light scattering assay; conditions: dose 4.0 µg/ml
# Staphylococcus aureus [18] = assay: Antibacterial activity against methicillin-resistant Staphylococcus aureus ATCC43300 assessed as log10 CFU reduction at 1 to 4 times MIC measured for 1 hr by time-killing assay; type: functional
# Staphylococcus aureus [19] = assay: Inhibition of biofilm formation in methicillin-resistant Staphylococcus aureus ATCC43300 incubated for 24 hrs by crystal violet staining based assay; type: functional, organism-based; conditions: dose 0.012-12.5 µg/ml
# Staphylococcus aureus [20] = assay: Inhibition of biofilm formation in methicillin-resistant Staphylococcus aureus ATCC43300 at 0.012 ug/ml incubated for 24 hrs by crystal violet staining based assay relative to control; type: functional
# Staphylococcus aureus [21] = assay: Inhibition of biofilm formation in methicillin-resistant Staphylococcus aureus ATCC43300 at 0.024 ug/ml incubated for 24 hrs by crystal violet staining based assay relative to control; type: functional
# Staphylococcus aureus [22] = assay: Inhibition of biofilm formation in methicillin-resistant Staphylococcus aureus ATCC43300 at 0.049 ug/ml incubated for 24 hrs by crystal violet staining based assay relative to control; type: functional
# Staphylococcus aureus [23] = assay: Antibacterial activity against methicillin-resistant Staphylococcus aureus ATCC43300 assessed as bacterial count reduction at 2 times MIC measured after 10 hrs by time-killing assay; type: functional, organism-based
# [24] = molecular target: T1, Cell division protein FtsZ (Escherichia coli K-12); assay: Inhibition of recombinant Escherichia coli FtsZ expressed in Escherichia coli BL21 assessed as reduction in GTPase activity at 0.32 ug/ml incubated for 30 mins by malachite green phosphate staining based assay relative to control; conditions: dose 0.32 µg/ml
SMILES,MIC (Staphylococcus aureus [1]) [µg/mL],MIC (Bacillus subtilis [2]) [µg/mL],MIC (Streptococcus pneumoniae) [µg/mL],MIC (Escherichia coli) [µg/mL],other results
CCCCNC(=O)c1ccc2[nH]c3c4[n+](ccc3c2c1)-c1ccccc1C4=O.[Br-],6.25,3.12,3.12,> 200,
COc1cccc(NC(=O)c2ccc3[nH]c4c5[n+](ccc4c3c2)-c2ccccc2C5=O)c1.[Br-],0.39,0.195,0.39,> 200,
Cc1ccccc1NC(=O)c1ccc2[nH]c3c4[n+](ccc3c2c1)-c1ccccc1C4=O.[Br-],25,12.5,50,> 200,
CCCCCCc1ccc(NC(=O)c2ccc3[nH]c4c5[n+](ccc4c3c2)-c2ccccc2C5=O)cc1.[Br-],25,0.78,6.25,> 200,
CCCCCCNC(=O)c1ccc2[nH]c3c4[n+](ccc3c2c1)-c1ccccc1C4=O.[Br-],0.39,0.39,0.39,> 200,
COc1ccccc1NC(=O)c1ccc2[nH]c3c4[n+](ccc3c2c1)-c1ccccc1C4=O.[Br-],0.049,0.024,0.049,> 200,"Activity (Staphylococcus aureus [3]): Active; Activity (Staphylococcus aureus [4]): 2 log10CFU/ml; Activity (Staphylococcus aureus [5]): 2 log10CFU/ml; inhibition (Staphylococcus aureus [6]): inactive; Activity (Staphylococcus aureus [7]): Active; Activity (Bacillus subtilis [8]): Active; inhibition [9]: Dose-Dependent Effect; inhibition [10]: Active; inhibition [11]: Dose-Dependent Effect; hemolysis at 1 h, 12.5 ug/ml [12]: 0%; viability at 24 h, 12.5 ug/ml [13]: 14.6%; viability at 24 h, 25 ug/ml [14]: 12.8%; viability at 24 h, 50 ug/ml [15]: 13.2%; Activity (RAW264.7): Toxic"
Cc1ccc(NC(=O)c2ccc3[nH]c4c5[n+](ccc4c3c2)-c2ccccc2C5=O)cc1.[Br-],0.78,0.195,0.39,> 200,
Cc1cccc(NC(=O)c2ccc3[nH]c4c5[n+](ccc4c3c2)-c2ccccc2C5=O)c1.[Br-],0.098,0.049,0.098,> 200,"Activity (Staphylococcus aureus [3]): Active; Activity (Staphylococcus aureus [16]): 2 log10CFU/ml; inhibition (Staphylococcus aureus [6]): inactive; Activity (Staphylococcus aureus [7]): Active; inhibition [17]: Active; Activity (Bacillus subtilis [8]): Active; inhibition [9]: Dose-Dependent Effect; inhibition [10]: Active; inhibition [11]: Dose-Dependent Effect; hemolysis at 1 h, 12.5 ug/ml [12]: 0%; viability at 24 h, 12.5 ug/ml [13]: 104%; viability at 24 h, 25 ug/ml [14]: 106%; viability at 24 h, 50 ug/ml [15]: 101%"
CCCCCCCCNC(=O)c1ccc2[nH]c3c4[n+](ccc3c2c1)-c1ccccc1C4=O.[Br-],0.098,0.098,0.39,> 200,"Activity (Staphylococcus aureus [3]): Active; Activity (Staphylococcus aureus [18]): 2 log10CFU/ml; inhibition (Staphylococcus aureus [6]): inactive; Activity (Staphylococcus aureus [7]): Active; inhibition [17]: Active; Activity (Bacillus subtilis [8]): Active; inhibition [9]: Dose-Dependent Effect; inhibition [10]: Active; inhibition [11]: Dose-Dependent Effect; hemolysis at 1 h, 12.5 ug/ml [12]: 0%; viability at 24 h, 12.5 ug/ml [13]: 103%; viability at 24 h, 25 ug/ml [14]: 84.1%; viability at 24 h, 50 ug/ml [15]: 73.3%; inhibition (Staphylococcus aureus [19]): Dose-Dependent Effect; inhibition at 0.012 µg/mL (Staphylococcus aureus [20]): ~11.9%; inhibition at 0.024 µg/mL (Staphylococcus aureus [21]): ~42.7%; inhibition at 0.049 µg/mL (Staphylococcus aureus [22]): 82.6%"
CCCCc1ccc(NC(=O)c2ccc3[nH]c4c5[n+](ccc4c3c2)-c2ccccc2C5=O)cc1.[Br-],3.12,0.049,0.78,> 200,
CN[C@H](CC(C)C)C(=O)N[C@H]1C(=O)N[C@@H](CC(N)=O)C(=O)N[C@H]2C(=O)N[C@H]3C(=O)N[C@H](C(=O)N[C@H](C(=O)O)c4cc(O)cc(O)c4-c4cc3ccc4O)[C@H](O)c3ccc(c(Cl)c3)Oc3cc2cc(c3O[C@@H]2O[C@H](CO)[C@@H](O)[C@H](O)[C@H]2O[C@H]2C[C@](C)(N)[C@H](O)[C@H](C)O2)Oc2ccc(cc2Cl)[C@H]1O [VANCOMYCIN],,,,> 200,Activity (Staphylococcus aureus [23]): inactive
COc1ccc(NC(=O)c2ccc3[nH]c4c5[n+](ccc4c3c2)-c2ccccc2C5=O)cc1.[Br-],0.39,0.39,0.39,> 200,
O=C(O)c1cn(C2CC2)c2cc(N3CCNCC3)c(F)cc2c1=O [CIPROFLOXACIN],0.78,0.195,0.195,0.195,
CC(C)c1ccccc1NC(=O)c1ccc2[nH]c3c4[n+](ccc3c2c1)-c1ccccc1C4=O.[Br-],12.5,6.25,50,> 200,
CC(C)c1ccc(NC(=O)c2ccc3[nH]c4c5[n+](ccc4c3c2)-c2ccccc2C5=O)cc1.[Br-],0.195,0.049,0.049,> 200,
CCCCCCCCc1ccc(NC(=O)c2ccc3[nH]c4c5[n+](ccc4c3c2)-c2ccccc2C5=O)cc1.[Br-],25,25,25,> 200,
CC(C)c1cccc(NC(=O)c2ccc3[nH]c4c5[n+](ccc4c3c2)-c2ccccc2C5=O)c1.[Br-],0.098,0.098,0.049,> 200,"Activity (Staphylococcus aureus [3]): Active; Activity (Staphylococcus aureus [16]): 2 log10CFU/ml; inhibition (Staphylococcus aureus [6]): inactive; Activity (Staphylococcus aureus [7]): Active; Activity (Bacillus subtilis [8]): Active; inhibition [9]: Dose-Dependent Effect; inhibition [10]: Active; inhibition [11]: Dose-Dependent Effect; inhibition [24]: 40%; hemolysis at 1 h, 12.5 ug/ml [12]: 0%; viability at 24 h, 12.5 ug/ml [13]: 98.8%; viability at 24 h, 25 ug/ml [14]: 100%; viability at 24 h, 50 ug/ml [15]: 98.2%"
O=C(NC1CCCCC1)c1ccc2[nH]c3c4[n+](ccc3c2c1)-c1ccccc1C4=O.[Br-],0.78,0.78,0.78,> 200,
O=C(Nc1ccccc1)c1ccc2[nH]c3c4[n+](ccc3c2c1)-c1ccccc1C4=O.[Br-],12.5,6.25,6.25,> 200,
